From patent US20080119561A1, “METHODS FOR PREVENTING OR DELAYING CATHETER- BASED RESVASCULARIZATION” (Pfizer Inc, priority 1998, published 2008)

Columns and labels:
[1] = test system: patients with CAD and LDL-C≧130 mg/dL; details: atorvastatin 80 mg
Method: This is an 18-month, open-label, randomized, multicenter study in 341 patients with elevated LDL-C (≧130 mg/dL whether or not they are receiving lipid-lowering medication) who have had angiography. […] Patients must be Class I or II based on the Canadian Cardiovascular Society classification of angina severity, and must be able to complete 4 minutes of a Bruce protocol treadmill test, or a 20-W/min supine bicycle exercise test.
The study is conducted in patients with LDL-C≧130 mg/dL and TG≦400 mg/dL who have asymptomatic or mildly to moderately symptomatic CAD (with or without antianginal therapy) and in whom a recanalization procedure is recommended. “Usual care” represents a heterogeneous mix of therapies that may include calcium channel blocker use or lipid-lowering therapy (including diet, behavior modification or antihyperlipidemic medication). Patients who have undergone angiography, or are about to undergo angiography, will be considered for this study based on the results of the angiogram and other inclusion criteria. The study will be performed using a common protocol at all study sites. […]
All patients will be randomized to either Group 1 or Group 2 according to a randomization code. […] Usual care will be determined by the investigator or the patient's primary physician (or whoever typically decides the patient's follow-up care) as he or she sees fit. […]

subjects and patients = details: over 400 subjects and patients; cited from earlier work
[2] = test system: hypercholesterolemic patients; details: 2.5 to 80 mg/day, 6 weeks; cited from earlier work
[3] = test system: cholesterol-fed male New Zealand White rabbits; details: 8 weeks, compared to progression controls; cited from earlier work

SMILES: CC(C)c1c(C(=O)Nc2ccccc2)c(-c2ccccc2)c(-c2ccc(F)cc2)n1CC[C@@H](O)C[C@@H](O)CC(=O)O [atorvastatin]
- patients who encountered an adverse heart event ([1]; over 18 months, angioplasty group 21%): 13%
- LDL cholesterol on treatment, average ([1]; from 140 mg/dL before treatment): 77 mg/dL
- most frequently occurring adverse events (subjects and patients): headache, infection (mostly colds), constipation, and back pain
- HDL-C, apolipoprotein AI (apo AI) or Lp (a) [2]: No significant changes
- apolipoprotein B (apo B) [2]: significantly reduced
- drug-related serious adverse events [2]: no drug-related serious adverse events
- reduction of TG levels [2]: up to 32%
- total cholesterol [2]: significantly reduced
- percentage of discernible thoracic aortic lesions [3]: reduced
- reduction of extracellular matrix and smooth muscle cell area [3]: 63%
- reduction of size of iliac-femoral lesions [3]: approximately 68%
